Results on 1 compound are retold here after patent publication US11938129B2, “Methods and compositions for the treatment of vascular disease” (THE GENERAL HOSPITAL CORPORATION, priority 2018, dated 2024).

Entries after “also recorded” stand apart in the source; their conditions may differ.

Experiment [1] relates to neointimal formation in ligated carotid. The experiment can be described thus: murine carotid artery ligation model: neointimal formation and stenosis (histology). In kind it is in vivo, mouse. The note with it: wild-type mice, left carotid ligation, 21 days; GSK343 in drinking water from 24 hrs before ligation for 3 weeks; GapmeR 15 nmol 24 hrs before and 7 days post-ligation. As to the method:
(§1) All mice used in this study were cared for under strict compliance with the Partners Institutional Animal Care and Use Committee (IACUC), regulated by the United States Public Health Service (USPHS). Carotid ligations were performed in 10 week old mice. Briefly, animals were anesthetized using intraperitoneal ketamine/xylazine (80 and 12 mg/kg, respectively) followed by a small incision in the neck to expose the carotid artery. Then the left carotid was ligated at the carotid bifurcation level using a 8-0 silk suture. At 21 days mice were sacrificed and carotids were collected for histological analysis. Approximately 98% of wild type mice developed stenotic lesions. Mice that developed thrombosis of the ligated carotid were excluded from the study (−1¬2%). Malatl knockout mice were kindly provided by Dr. David Spector (Cold Spring Harbor, N.Y.). Hdac9 flox/flox/Talgn-cre mice were generated as previously reported (10). […]
(§2) Left and right carotids were cryosectioned using OCT standard protocol and sectioning. […] Slides 1, 5, 10, and 15 were H&E stained for quantification of neointima. For quantification of the neointima, internal and external elastic lamina perimeters and medial thickness from 4 quadrants were measured and averaged using Image J software from the National Institutes of Health (NIH). […]

Another experiment relates to a-SMA and SM22a. The experiment is described as follows: immunofluorescence of contractile proteins in ligated carotids. It counts as in vivo, mouse. As to the method: All mice used in this study were cared for under strict compliance with the Partners Institutional Animal Care and Use Committee (IACUC), regulated by the United States Public Health Service (USPHS). Carotid ligations were performed in 10 week old mice. Briefly, animals were anesthetized using intraperitoneal ketamine/xylazine (80 and 12 mg/kg, respectively) followed by a small incision in the neck to expose the carotid artery. Then the left carotid was ligated at the carotid bifurcation level using a 8-0 silk suture. At 21 days mice were sacrificed and carotids were collected for histological analysis. Approximately 98% of wild type mice developed stenotic lesions. Mice that developed thrombosis of the ligated carotid were excluded from the study (−1¬2%). Malatl knockout mice were kindly provided by Dr. David Spector (Cold Spring Harbor, N.Y.). Hdac9 flox/flox/Talgn-cre mice were generated as previously reported (10). Ezh2 fl/fl/ (STOCK Ezh2tm2Sho/J) and Myh11-cre-GFP (B6.Cg-Tg(Myh11-cre,-EGFP)2Mik/J) were crossed to generate smooth muscle cell-Ezh2 deficient mice. All above mice and wild-type mice (C57BL/6J) were purchased from Jackson laboratory. For tissue analysis, animals were euthanized through inhalational isoflurane (Sigma, St, Louis, Mo.) prior to tissue collection. All carotid ligation (left carotid) procedures were performed at 10 weeks of age. All experiments were performed on male and female animals at a 1:1 ratio.
Left and right carotids were cryosectioned using OCT standard protocol and sectioning. The right carotid artery was unligated and served as an internal control. Neoinitima analysis was performed from hematoxylin and eosin (H & E) stained horizontal cross-sections embedded in Optimal Cutting Temperature compound (OCT). Briefly, the distal 0.2 mm of carotid from the ligation suture site were discarded followed by generation of 20 slides (10 pM). Slides 1, 5, 10, and 15 were H&E stained for quantification of neointima. For quantification of the neointima, internal and external elastic lamina perimeters and medial thickness from 4 quadrants were measured and averaged using Image J software from the National Institutes of Health (NIH). Slides 2-4, 6-9, and 11-14 were used for immunofluorescence staining.
Cohorts of 10-week-old wild-type mice were treated with oral administration in drinking water of GSK343 24 hrs before left carotid ligation and following treatment for 3 weeks. GSK343 inhibitor (25 mg) was dissolved in 1 mL of DMSO to obtain a stock solution of 46 mM. Then, 250 ml of drinking water was supplemented with 250 pl of GSK343 stock solution. Control group for was given with equal volumes of sterile water. Bottles containing GSK343 were replaced with fresh water supplied with drug every 3 days. […]

The subject of the next experiment is MMP2 and MMP9 activity. The experiment is described as follows: in vivo MMP activity (MMPSense 750 FAST) after carotid ligation. The note with it: 24 h post injection, ligated mice. The arrangement: species or system mouse. On the procedure:
Mice were tail vein injected with 600 uL of MMPSense 750 FAST, a near-infrared fluorescence sensor for MMP2 and MMP9 activity, (PerkinElmer, USA). Mice were sacrificed 24 h post injection and aortas were dissected and analyzed using a Kodak image station 4000MM Pro for macroscopic fluorescence reflectance molecular imaging.
Cohorts of 10-week-old wild-type mice were treated with oral administration in drinking water of GSK343 24 hrs before left carotid ligation and following treatment for 3 weeks. GSK343 inhibitor (25 mg) was dissolved in 1 mL of DMSO to obtain a stock solution of 46 mM. Then, 250 ml of drinking water was supplemented with 250 pl of GSK343 stock solution. Control group for was given with equal volumes of sterile water. Bottles containing GSK343 were replaced with fresh water supplied with drug every 3 days. For Malatl antisense LNA treatments, cohorts of 10-week-old wild-type mice were injected with 15 nmol in saline solution 24 hrs before left carotid ligation following by a second injection 7 days post-ligation.

The subject of another experiment is Hdac9. The experiment can be described thus: immunofluorescence of Hdac9 in ligated carotid. In kind it is in vivo, mouse. The note with it: arterial media and intima of carotid arteries. As to the method:
as §1, §2

Experiment [2] concerns SM22a expression in TAA VSMCs. The experiment is described as follows: in vitro GSK343 treatment of isolated TAA VSMCs, SM22a immunoblotting after TGF-β1. In kind it is cell-based, human. The note with it: GSK343, TGF-β1 10 ng/mL. As to the method:
Primary human aortic smooth muscle cells (HAoSMC) from healthy donors were purchased from Cell Applications Inc., California, USA (Cat. #354K-05a). Primary aneurysm aortic SMCs were isolated from fresh TAA tissue at the moment of surgery by standard explant of the aortic media. Mouse aortic SMCs were isolated by standard explant of the ascending section of the aortas from wild-type or Fbn1ci°39G1+ mice. Smooth muscle cell identity was assessed by immunofluorescence staining of contractile markers including SM22a, Calponin, Smoothelin and Vinculin. In order to preserve cell identity all experiments were carried out at passages 1-5 (Timraz et al., 2016). Human and murine SMCs were grown with smooth muscle cell growth medium from Cell Applications Inc. (Cat. #311-500). VSMCs at 60-70% confluence were supplemented with opti-MEM 24 hrs before treatment with complete growing media containing GSK343 at a concentration of […] for 4 days. Fresh media containing GSK343 was supplied daily. For GSK343/TGF81 (10 ng/mL) combo treatment, cells were first treated with complete media containing GSK343 at concentration of 10 nM during the 2 first days followed by GSK343/TGFβ combination treatment the next 2 days. Prior to cellular collection cells were washed with sterile PBS and RNA or protein extraction were performed as described above.
Background: A western blot detects proteins with antibodies after separation by electrophoresis.

A further experiment concerns TGF-β signaling. The experiment can be described thus: TGF-β activity by phosphorylation of Smad2 or Erk1 in aortas of treated mice. It counts as in vivo, mouse. The note with it: aortic tissue of treated Fbn1C1039G/+ mice. On the procedure:
Latex was injected into the left ventricular apex under low pressure until it was visible in the femoral artery. Animals were then fixed in Formalin (10%) for 24 hours before transfer to 70% ethanol for dissection and storage. Aortas were then removed from the animals or dissected in situ for photography prior to paraffinization and sectioning (10 pM). Slides were produced for tissue staining or stained with standard stains including H&E staining, collagen deposition (Trichrome Stain (Masson) Kit, Sigma, USA), elastin (Verhoeff-Van Gieson, Thermo Scientific, MI, USA) or F-actin (ActinGreen™ 488 ReadyProbes, ThermoFisher Scientific, USA) for quantitative analysis. Elastin integrity score was rated by blinded observers and graded on an arbitrary scale of 5 (indicating high quality elastic fiber) to 1 (indicating severe elastin fragmentation). For nuclear staining aortas from human and mice were cryosectioned using OCT standard protocol as described previously (Fischer et al., 2008). Cohorts of 8-week-old wild-type or Fbn1cw3gGi+ mice were treated with oral administration in drinking water of either Losartan or GSK343 for 20 weeks (FIG. 5). […] Then 200 mL of drinking water was supplemented with 250 pL of GSK343 stock solution. […] Aortic dimensions were monitored monthly by echocardiograms as mentioned above.

A further experiment deals with EZH1 (Homo sapiens, UniProt Q92800). The settings on record: cited from earlier work.
Chain of EZH1 (Q92800 whole entry, species assumed): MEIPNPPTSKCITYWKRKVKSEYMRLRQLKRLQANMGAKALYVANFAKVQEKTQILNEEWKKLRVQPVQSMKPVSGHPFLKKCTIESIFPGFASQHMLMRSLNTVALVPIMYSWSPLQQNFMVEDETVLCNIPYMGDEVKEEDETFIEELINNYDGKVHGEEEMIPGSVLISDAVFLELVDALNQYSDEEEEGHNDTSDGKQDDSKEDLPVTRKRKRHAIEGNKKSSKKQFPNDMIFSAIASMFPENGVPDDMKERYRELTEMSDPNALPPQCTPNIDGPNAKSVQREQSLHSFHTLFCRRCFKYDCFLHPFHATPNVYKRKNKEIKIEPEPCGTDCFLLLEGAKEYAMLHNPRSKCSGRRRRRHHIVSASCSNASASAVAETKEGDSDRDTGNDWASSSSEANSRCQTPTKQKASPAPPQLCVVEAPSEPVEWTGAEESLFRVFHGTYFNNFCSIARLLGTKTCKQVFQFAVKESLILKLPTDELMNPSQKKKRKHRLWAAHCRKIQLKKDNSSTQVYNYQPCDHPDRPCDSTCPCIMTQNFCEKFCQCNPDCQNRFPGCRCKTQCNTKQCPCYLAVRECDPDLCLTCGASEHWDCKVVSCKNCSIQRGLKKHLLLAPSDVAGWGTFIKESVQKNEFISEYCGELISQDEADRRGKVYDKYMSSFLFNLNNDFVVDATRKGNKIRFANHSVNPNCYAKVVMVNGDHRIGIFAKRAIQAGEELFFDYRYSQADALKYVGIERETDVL
Chain of EZH1 (O75530 whole entry partner, species assumed): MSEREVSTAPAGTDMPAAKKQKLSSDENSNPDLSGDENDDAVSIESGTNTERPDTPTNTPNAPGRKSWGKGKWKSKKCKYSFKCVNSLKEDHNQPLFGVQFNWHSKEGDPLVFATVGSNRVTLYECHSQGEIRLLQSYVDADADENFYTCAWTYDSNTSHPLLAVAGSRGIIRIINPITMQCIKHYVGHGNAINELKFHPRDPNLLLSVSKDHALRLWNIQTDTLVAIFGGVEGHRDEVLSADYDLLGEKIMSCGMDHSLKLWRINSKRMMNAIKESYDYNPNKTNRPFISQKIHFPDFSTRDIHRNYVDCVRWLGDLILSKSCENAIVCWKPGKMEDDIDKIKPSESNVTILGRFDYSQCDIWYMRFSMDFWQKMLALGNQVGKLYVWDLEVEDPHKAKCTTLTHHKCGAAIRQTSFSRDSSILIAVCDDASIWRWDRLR
Chain of EZH1 (Q15022 whole entry partner, species assumed): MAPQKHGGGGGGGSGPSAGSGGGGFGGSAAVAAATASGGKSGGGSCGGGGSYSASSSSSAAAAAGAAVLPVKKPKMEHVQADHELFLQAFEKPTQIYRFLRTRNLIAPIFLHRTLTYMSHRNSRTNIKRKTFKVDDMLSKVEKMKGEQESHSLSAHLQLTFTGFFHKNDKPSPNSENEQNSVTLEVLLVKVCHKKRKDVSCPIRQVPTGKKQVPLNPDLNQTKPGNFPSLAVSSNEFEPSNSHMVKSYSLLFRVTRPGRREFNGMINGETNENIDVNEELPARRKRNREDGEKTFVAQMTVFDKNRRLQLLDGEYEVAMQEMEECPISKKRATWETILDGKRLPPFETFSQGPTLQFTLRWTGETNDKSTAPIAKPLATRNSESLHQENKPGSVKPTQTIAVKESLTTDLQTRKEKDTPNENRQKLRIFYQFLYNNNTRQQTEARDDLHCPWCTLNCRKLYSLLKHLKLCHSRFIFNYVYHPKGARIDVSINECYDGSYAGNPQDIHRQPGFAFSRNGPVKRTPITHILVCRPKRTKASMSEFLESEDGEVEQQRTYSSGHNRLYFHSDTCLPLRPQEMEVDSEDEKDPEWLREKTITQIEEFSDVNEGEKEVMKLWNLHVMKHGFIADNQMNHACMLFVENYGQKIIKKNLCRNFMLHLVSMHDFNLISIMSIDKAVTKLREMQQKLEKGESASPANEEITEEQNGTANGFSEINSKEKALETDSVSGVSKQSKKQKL
Chain of EZH1 (Q09028 whole entry partner, species assumed): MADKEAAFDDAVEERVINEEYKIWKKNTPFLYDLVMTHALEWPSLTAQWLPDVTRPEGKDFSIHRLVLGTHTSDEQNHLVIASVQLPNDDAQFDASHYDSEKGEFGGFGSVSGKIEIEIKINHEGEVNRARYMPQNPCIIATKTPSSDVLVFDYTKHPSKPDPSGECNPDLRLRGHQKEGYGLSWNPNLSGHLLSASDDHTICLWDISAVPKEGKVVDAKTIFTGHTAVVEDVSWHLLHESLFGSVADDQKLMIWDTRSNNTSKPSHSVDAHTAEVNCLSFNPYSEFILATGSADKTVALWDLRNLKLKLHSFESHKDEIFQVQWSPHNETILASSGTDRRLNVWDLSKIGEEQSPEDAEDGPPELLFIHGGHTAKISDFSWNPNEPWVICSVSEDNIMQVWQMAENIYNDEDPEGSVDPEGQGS
Chain of EZH1 (Q6ZN18 whole entry partner, species assumed): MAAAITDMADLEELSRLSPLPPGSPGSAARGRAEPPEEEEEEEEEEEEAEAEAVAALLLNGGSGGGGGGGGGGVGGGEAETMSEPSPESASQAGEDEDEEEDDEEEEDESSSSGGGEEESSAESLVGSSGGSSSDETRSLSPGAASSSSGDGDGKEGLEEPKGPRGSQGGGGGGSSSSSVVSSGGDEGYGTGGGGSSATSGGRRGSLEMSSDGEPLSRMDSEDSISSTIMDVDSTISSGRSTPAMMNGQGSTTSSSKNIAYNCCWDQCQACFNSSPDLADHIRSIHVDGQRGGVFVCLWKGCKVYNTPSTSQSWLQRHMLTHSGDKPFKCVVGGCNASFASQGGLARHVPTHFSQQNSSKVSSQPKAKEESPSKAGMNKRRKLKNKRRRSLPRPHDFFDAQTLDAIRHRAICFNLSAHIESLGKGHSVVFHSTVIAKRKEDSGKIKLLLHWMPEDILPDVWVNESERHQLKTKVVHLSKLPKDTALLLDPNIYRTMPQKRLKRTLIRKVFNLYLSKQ
In experiment [3] the test system is other histone methyltransferases. The settings on record: cited from earlier work.

For `CCCc1cc(C)[nH]c(=O)c1CNC(=O)c1cc(-c2ccnc(N3CCN(C)CC3)c2)cc2c1cnn2C(C)C` [GSK343], the “extent of the stenotic response / neointimal formation” value in experiment [1] is “significant inhibition of neointimal formation; also recorded: dramatically improved the extent of the stenotic response”. Besides, the “expression of α-SMA in carotid VSMCs” value with a-SMA and SM22a (ligated carotid, in contrast to carotid VSMCs in wild type animals) is “robust expression”. In addition, the “expression of contractile proteins such as a-SMA and SM22a” value with a-SMA and SM22a (ligated carotids of treated mice) is given as “improved the expression of contractile proteins”. For the same compound, the “activity of MMPs” value with MMP2 and MMP9 activity is listed as “Inhibition of Mmp activity; also recorded: inhibited the activity of MMPs”. The “accumulation of Hdac9” value in the experiment on Hdac9 is listed as “decreased accumulation”. In experiment [2], the “SM22a expression after stimulation with recombinant TGF-β1” value is recorded as “recovered the ability to induce SM22a expression”. In addition, in the experiment with TGF-β signaling, the “TGF-β activity as assessed by phosphorylation of Smad2 or Erk1 protein” value was “did not suppress and not”. The “selectivity for EZH2 vs. EZH1” value at EZH1 is 60 fold. For the same compound, the “selectivity against other histone methyltransferases” value in experiment [3] is reported as not below 1000 fold.
